Reference: patent US8497352B2, “Use of Wnt5-α peptide derivates for the treatment of melanoma and gastric cancer” (Wntresearch AB, priority 2008, dated 2013)
Where no end group is shown, it is not given here. The star is where a group is joined. For = O=C*

Key:
[1] = test system: HTB63 melanoma cells; assay: Wound-healing assay (migration), HTB63 cells; type: cell-based, human; settings: 10 μM SB431542, serum-free medium
Experimental: (§1) Cells were plated in 12 well plates and allowed to grow into a confluent layer in complete RPMI (for A2058 cells) or complete McCoy's 5A medium (for HTB63 cells). As indicated, cells were pre-incubated with the Box5 peptide (100 μM) or control solvent for 40 min with continuous agitation. A wound was then inflicted by making a scratch through the confluent layer of cells with a pipette tip. During the migration period of the assay, cells were incubated either in serum-free medium or in the case of HTB63 cells in their own serum-free-conditioned medium collected from cells cultured for 48 h and used within 2 days after collection. The exact conditions of each experiment are described above. To avoid loss of activity, cell medium was changed after 24 hours. A picture for each scratch was taken in the same area of cells at 0, 16, 24, 40 and 48 hours, and wound healing was measured as percentage of wound area closed. For each experimental condition wound healing was analysed in triplicate. All data were based on 3 to 8 separate experiments as indicated.

[2] = test system: HTB63 melanoma cells; assay: BD Matrigel invasion chamber assay, HTB63 cells; type: cell-based, human; settings: 10 μM SB431542, 24 hours
Experimental: Cell invasion was analyzed using the BD Matrigel™ invasion chamber assay (BD Biosciences, Bedford, Mass.). Prior to the initiation of each experiment, the cells were detached with Versene and re-suspended as single cells in serum-free RPMI medium. As indicated, cells were pre-incubated with the Box5 peptide (100 μM) or control solvent for 40 min with continuous agitation. An aliquot of the cell suspension containing 25,000 cells and 100 μM Box5 or control solvent was then added to the upper transwell chamber, and the lower chamber was filled with serum-containing (10%) medium. The invasion chambers were shaken horizontally for 5 min to ensure even distribution of the cells in suspension and subsequently across the membrane surface. The cells were allowed to invade for the periods of time indicated at 37° C. in a humidified atmosphere of 5% CO2. The medium was discarded and cells were fixed in 4% paraformaldehyde for 10 min. The cells were stained with 0.5% crystal violet in 20% methanol for 10 min and the non-invading cells on the inner side of the membrane were removed with a cotton-tipped applicator. The membrane was cut out of the chamber using a scalpel blade and the stained cells on the lower chamber side of the membrane were counted.

[3] = test system: Wnt-5a protein expression; assay: Wnt-5a protein expression in HTB63 cells, Western blot; type: cell-based, human
Experimental: The cells were either directly lysed in 1× Laemmli buffer containing DTT and boiled for 10 min, or lysed in buffer containing 50 mM Tris-HCl (pH 7.5), 1% Triton X-100, 100 mM NaCl, 10 mM MgCl2, 20% glycerol, 1 mM Na3VO4, and protease inhibitors (20 μg/ml aprotinin, 1 μg/ml leupeptin, 2.5 mM benzamidine, and 2 mM pefabloc). Cell treated with lysis buffer were centrifuged at 15,000 rpm for 5 min at 4° C. The protein content in each sample was determined and adjusted to ensure equal loading of protein in each lane. Thereafter, 50 mM DTT and 5× concentrated Laemmli buffer was added and the samples boiled for 5 min. The samples were separated by SDS polyacrylamide gel electrophoresis and subsequently transferred to PVDF membranes. For immunoblotting the membranes were blocked in PBS supplemented with 0.2% Tween 20 and 1% non-fat milk for Wnt-5a or 3% non-fat milk as for all other antibodies for 1 h. Thereafter the membranes were incubated for 1 h at room temperature or overnight at 4° C. with the indicated primary Ab (1:25,000 for β-actin; 1:1,000 for Wnt-5a and 1:1,000 for TGF-β1) in 2% non-fat milk or 1.5% BSA. After extensive washing in PBS with 0.2% Tween, the membranes were incubated for 1 h with a horseradish peroxidase-conjugated secondary Ab in 2% non-fat milk or 1.5% BSA and again extensively washed. Finally, the Ab-antigen complexes were detected using enhanced chemiluminescence. […]

[4] = test system: A2058 melanoma cells; assay: Wound-healing assay (migration), A2058 cells; type: cell-based, human; settings: 50 μM Foxy5, 0, 16, 24, 40 and 48 hours
Experimental: as §1

[5] = test system: breast cancer cell; settings: breast tumor cells lacking endogenous Wnt-5a; cited from earlier work
[6] = test system: breast cancer metastasis; settings: mouse model; cited from earlier work

Molecule: NC(=O)c1ccc(-c2nc(-c3ccc4c(c3)OCO4)c(-c3ccccn3)[nH]2)cc1 [SB431542]
- Effect on migration of HTB63 cells [1]: inhibited
- Effect on migration of HTB63 cells in the invasion assay [2]: stimulated
- Endogenous Wnt-5a protein expression in HTB63 cells ([3]; 10 μM SB431542, 4 days): significantly reduced
- Endogenous Wnt-5a protein expression in HTB63 cells ([3]; 10 μM SB431542, 5 days): almost abolished

Molecule: Foxy5: Met-Asp-Gly-Cys-Glu-Leu hexapeptide formylated at the N-terminal Met, agonist of Wnt-5a signalling (For-MDGCEL)
- Effect on migration of A2058 cells [4]: promotes
- Signaling and inhibition of breast cancer cell migration [5]: mimic the effects of Wnt-5a
- Breast cancer metastasis [6]: inhibits
